Measured values from patent publication US20180002319A1, “MACROCYCLIC PICOLINAMIDE COMPOUNDS WITH FUNGICIDAL ACTIVITY” (DOW AGROSCIENCES LLC, priority 2014, published 2018).
Read-outs that look alike come from different tables or passages of the source.

Tests used:
Zymoseptoria tritici = assay: Leaf Blotch of Wheat (SEPTTR) fungicidal activity; assay type: in vivo; settings: High Volume application, 100 ppm, wheat leaf blotch
In short: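 Wheat seedlings (Yuma, first leaf emerged) were sprayed to run-off with compound in acetone/water containing Triton X-100 and inoculated with Z. tritici spores before or after treatment. Percent disease control comes from 0–100% severity on treated versus untreated plants.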

Puccinia triticina = assay: Wheat Brown Rust (PUCCRT) fungicidal activity; assay type: in vivo; settings: High Volume application, 100 ppm
In short: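 Yuma wheat seedlings at first-leaf stage sprayed to run-off with acetone/water (Triton X-100) solutions, inoculated with P. triticina spores before or after treatment. Overnight dark dew at 22° C, then greenhouse at 24° C; percent disease control from severity versus untreated plants.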

[1] = 24 h, 1 day protectant, read-out: SEPTTR disease control, 1DP (1 Day Protectant)
[2] = 72 h, 3 day curative, read-out: SEPTTR disease control, 3DC (3 Day Curative)
[3] = 24 h, 1 day protectant, read-out: PUCCRT disease control, 1DP (1 Day Protectant)
[4] = 72 h, 3 day curative, read-out: PUCCRT disease control, 3DC (3 Day Curative)

| Compound | pest or weed control at 100 ppm (Zymoseptoria tritici; [1]) | pest or weed control at 100 ppm (Zymoseptoria tritici; [2]) | pest or weed control at 100 ppm (Puccinia triticina; [3]) | pest or weed control at 100 ppm (Puccinia triticina; [4]) |
| --- | --- | --- | --- | --- |
| CCCCO[C@H]1CCOC[C@H](NC(=O)c2nccc(OC)c2O)C(=O)O[C@@H](C)[C@@H]1OCC(C)C [Compound 87] | > 80% | < 80% | > 80% | > 80% |
| COc1ccnc(C(=O)N[C@H]2CCCC[C@H](OCc3ccccc3)[C@@H](OCc3ccccc3)[C@H](C)OC2=O)c1O [Compound 88] | > 80% | < 80% | > 80% | – |
| COc1ccnc(C(=O)N[C@H]2CCCC[C@H](OCC(C)C)[C@@H](OCC(C)C)[C@H](C)OC2=O)c1O [Compound 89] | < 80% | < 80% | < 80% | – |
| COc1ccnc(C(=O)N[C@H]2CCCC[C@H](Oc3ccccc3)[C@@H](OCC(C)C)[C@H](C)OC2=O)c1O [Compound 90] | > 80% | < 80% | > 80% | < 80% |
| COc1ccnc(C(=O)N[C@H]2CCCC[C@H](OC)[C@@H](Oc3ccccc3)[C@H](C)OC2=O)c1O [Compound 91] | > 80% | > 80% | > 80% | > 80% |
| COc1ccnc(C(=O)N[C@H]2CCCC[C@H](OC)[C@@H](OCC(C)C)[C@H](C)OC2=O)c1O [Compound 92] | > 80% | > 80% | > 80% | > 80% |
| COc1ccnc(C(=O)N[C@H]2CCCC[C@H](OCC(C)C)[C@@H](Oc3ccccc3)[C@H](C)OC2=O)c1O [Compound 93] | > 80% | < 80% | > 80% | > 80% |
| CCCCCO[C@H]1[C@H](C)OC(=O)[C@@H](NC(=O)c2nccc(OC)c2O)CCCC[C@@H]1OC(=O)c1ccccc1 [Compound 94] | > 80% | < 80% | > 80% | < 80% |
| CCCCCO[C@H]1[C@H](C)OC(=O)[C@@H](NC(=O)c2nccc(OC)c2O)CCCC[C@@H]1Oc1ccccc1 [Compound 96] | < 80% | < 80% | > 80% | < 80% |
| CCCO[C@H]1[C@H](C)OC(=O)[C@@H](NC(=O)c2nccc(OC)c2O)CCCC[C@@H]1Oc1ccccc1 [Compound 97] | > 80% | < 80% | > 80% | > 80% |
| COc1ccnc(C(=O)N[C@H]2CCCC[C@H](Oc3ccccc3)[C@@H](Oc3ccccc3)[C@H](C)OC2=O)c1O [Compound 98] | > 80% | < 80% | > 80% | < 80% |
| CCCO[C@H]1CCCC[C@H](NC(=O)c2nccc(OC)c2O)C(=O)O[C@@H](C)[C@@H]1Oc1ccccc1 [Compound 100] | > 80% | > 80% | > 80% | > 80% |
| COc1ccnc(C(=O)N[C@H]2COCC[C@H](Cc3ccccc3)[C@@H](OCC(C)C)[C@H](C)OC2=O)c1O [Compound 101] | < 80% | < 80% | < 80% | < 80% |
| COc1ccnc(C(=O)N[C@H]2CCCC[C@H](Cc3ccccc3)[C@@H](OCC(C)C)[C@H](C)OC2=O)c1O [Compound 102] | > 80% | – | > 80% | < 80% |
| CCC[C@H]1CCCC[C@H](NC(=O)c2nccc(OC)c2O)C(=O)O[C@@H](C)[C@@H]1OC(=O)C(C)C [Compound 103] | < 80% | – | > 80% | < 80% |
| COc1ccnc(C(=O)N[C@H]2CCCC[C@@H]3OC(C)(C)O[C@H]3[C@H](C)OC2=O)c1O [Compound 104] | < 80% | < 80% | > 80% | > 80% |
| COc1ccc(CO[C@H]2[C@H](C)OC(=O)[C@@H](NC(=O)c3nccc(OC)c3O)CCOC[C@@H]2OCc2ccc(OC)cc2)cc1 [Compound 106] | > 80% | < 80% | > 80% | – |
| COc1ccnc(C(=O)N[C@H]2CCCC[C@H](OC)[C@@H](OC3CCCC3)[C@H](C)OC2=O)c1O [Compound 107] | > 80% | < 80% | > 80% | > 80% |
